Measurements: ChEMBL document CHEMBL1151309, “Quanolirones I and II, two new human cytomegalovirus protease inhibitors produced by Streptomyces sp. WC76535” (J Nat Prod, 1998)

Columns and labels:
M109 = assay: Cytotoxicity against mouse M109 cells by XTT assay; assay type: functional, cell-based
[1] = Inhibition of GST-fused HCMV protease expressed in Escherichia coli by scintillation counting; parameters: species or system Human betaherpesvirus 5

| IC50 [1] [µM] | SMILES | IC50 (M109) [µM] |
| --- | --- | --- |
| 52 | Cc1cc(O)c2cc3c(c(O)c2c1)C(=O)c1ccc([C@@H]2C[C@H](O[C@H]4CC[C@H](O[C@H]5C[C@@H](O[C@H]6CC[C@H](O)[C@H](C)O6)[C@H](O)[C@H](C)O5)[C@H](C)O4)[C@@H](O)[C@@H](C)O2)c(O)c1C3=O | 12 |
| 35 | Cc1cc(O)c2cc3c(c(O)c2c1)C(=O)c1ccc([C@H]2C[C@@H](O[C@@H]4CC[C@@H](O)[C@@H](C)O4)[C@H](O)[C@@H](C)O2)c(O)c1C3=O [QUANOLIRONE II] | 89 |
| 14 | Cc1cc(O)c2cc3c(c(O)c2c1)C(=O)c1ccc([C@H]2C[C@@H](O[C@H]4CC[C@H](O[C@H]5C[C@@H](O)[C@H](O)[C@@H](C)O5)[C@H](C)O4)[C@H](O)[C@@H](C)O2)c(O)c1C3=O [QUANOLIRONE I] | 14 |
